Reference: patent US20150017667A1, “MEANS AND METHODS FOR ASSESSING LIVER DISORDERS” (BASF SE, priority 2012, published 2015)
Marks after values point to notes of the source that are not given here.

Test system: female rats
Assay: 28-day repeated dose oral toxicity study (OECD 407) with GC-MS/LC-MS plasma metabolite profiling, female rats

Compound: CN1CCCC1=O [1-Methyl-2-pyrrolidon]
- 3-O-Methylsphingosine (d18:1), ratio versus control (day 7): 2.14*
- 5-O-Methylsphingosine (d18:1), ratio versus control (day 7): 2.42*
- 14-Methylhexadecanoic acid, ratio versus control (day 7): 1.15
- Behenic acid (C22:0), ratio versus control (day 7): 1.9*
- Cholesterol, ratio versus control (day 7): 1.73*
- Coenzyme Q9, ratio versus control (day 7): 2.46*
- DAG (C18:1,C18:2), ratio versus control (day 7): 2.43*
- Eicosanoic acid (C20:0), ratio versus control (day 7): 1.77*
- Glucose, ratio versus control (day 7): 1.05*
- Glycerol phosphate, lipid fraction, ratio versus control (day 7): 1.86*
- Glycerol, lipid fraction, ratio versus control (day 7): 2.24*
- Glycerol-3-phosphate, polar fraction, ratio versus control (day 7): 1.9*
- Heptadecanoic acid (C17:0), ratio versus control (day 7): 1.46*
- Linoleic acid (C18:cis[9,12]2), ratio versus control (day 7): 2.52*
- Nervonic acid (C24:cis[15]1), ratio versus control (day 7): 1.75*
- Palmitic acid (C16:0), ratio versus control (day 7): 1.91*
- Phosphatidylcholine (C16:0,C20:5), ratio versus control (day 7): 1.32*
- TAG (C16:0,C18:1,C18:3), ratio versus control (day 7): 3.94*
- TAG (C16:0,C18:2), ratio versus control (day 7): 2.46*
- TAG (C18:1,C18:2), ratio versus control (day 7): 3.73*
- TAG (C18:2,C18:2), ratio versus control (day 7): 3.44*
- TAG (C18:2,C18:3), ratio versus control (day 7): 4.16*
- TAG No 01, ratio versus control (day 7): 3.21*
- TAG No 05, ratio versus control (day 7): 3.11*
- TAG No 07, ratio versus control (day 7): 3.69*
- dihomo-gamma-Linolenic acid (C20:cis[8,11,14]3), ratio versus control (day 7): 2.37*
- erythro-Sphingosine, ratio versus control (day 7): 2.19*
- 3-O-Methylsphingosine (d18:1), ratio versus control (day 14): 2.3*
- 5-O-Methylsphingosine (d18:1), ratio versus control (day 14): 2.31*
- 14-Methylhexadecanoic acid, ratio versus control (day 14): 0.93
- Behenic acid (C22:0), ratio versus control (day 14): 2.04*
- Cholesterol, ratio versus control (day 14): 2.16*
- Coenzyme Q9, ratio versus control (day 14): 2.57*
- DAG (C18:1,C18:2), ratio versus control (day 14): 2.31*
- Eicosanoic acid (C20:0), ratio versus control (day 14): 1.8*
- Glucose, ratio versus control (day 14): 0.99
- Glycerol phosphate, lipid fraction, ratio versus control (day 14): 1.72*
- Glycerol, lipid fraction, ratio versus control (day 14): 2.33*
- Glycerol-3-phosphate, polar fraction, ratio versus control (day 14): 1.11*
- Heptadecanoic acid (C17:0), ratio versus control (day 14): 1.39*
- Linoleic acid (C18:cis[9,12]2), ratio versus control (day 14): 2.4*
- Nervonic acid (C24:cis[15]1), ratio versus control (day 14): 1.64*
- Palmitic acid (C16:0), ratio versus control (day 14): 1.95*
- Phosphatidylcholine (C16:0,C20:5), ratio versus control (day 14): 1.45*
- TAG (C16:0,C18:1,C18:3), ratio versus control (day 14): 4.14*
- TAG (C16:0,C18:2), ratio versus control (day 14): 3.6*
- TAG (C18:1,C18:2), ratio versus control (day 14): 3.82*
- TAG (C18:2,C18:2), ratio versus control (day 14): 3.56*
- TAG (C18:2,C18:3), ratio versus control (day 14): 3.61*
- TAG No 01, ratio versus control (day 14): 4.15*
- TAG No 05, ratio versus control (day 14): 5.32*
- TAG No 07, ratio versus control (day 14): 3.84*
- dihomo-gamma-Linolenic acid (C20:cis[8,11,14]3), ratio versus control (day 14): 2.16*
- erythro-Sphingosine, ratio versus control (day 14): 2.27*
- 3-O-Methylsphingosine (d18:1), ratio versus control (day 28): 1.83*
- 5-O-Methylsphingosine (d18:1), ratio versus control (day 28): 1.89*
- 14-Methylhexadecanoic acid, ratio versus control (day 28): 1.35*
- Behenic acid (C22:0), ratio versus control (day 28): 2.06*
- Cholesterol, ratio versus control (day 28): 2.38*
- Coenzyme Q9, ratio versus control (day 28): 3.27*
- DAG (C18:1,C18:2), ratio versus control (day 28): 6.81*
- Eicosanoic acid (C20:0), ratio versus control (day 28): 2.79*
- Glucose, ratio versus control (day 28): 0.76*
- Glycerol phosphate, lipid fraction, ratio versus control (day 28): 2.59*
- Glycerol, lipid fraction, ratio versus control (day 28): 5.75*
- Glycerol-3-phosphate, polar fraction, ratio versus control (day 28): 1.29
- Heptadecanoic acid (C17:0), ratio versus control (day 28): 2.17*
- Linoleic acid (C18:cis[9,12]2), ratio versus control (day 28): 4.46*
- Nervonic acid (C24:cis[15]1), ratio versus control (day 28): 1.75*
- Palmitic acid (C16:0), ratio versus control (day 28): 3.53*
- Phosphatidylcholine (C16:0,C20:5), ratio versus control (day 28): 1.35*
- TAG (C16:0,C18:1,C18:3), ratio versus control (day 28): 11.37*
- TAG (C16:0,C18:2), ratio versus control (day 28): 3.51*
- TAG (C18:1,C18:2), ratio versus control (day 28): 7.38*
- TAG (C18:2,C18:2), ratio versus control (day 28): 7.33*
- TAG (C18:2,C18:3), ratio versus control (day 28): 11.21*
- TAG No 01, ratio versus control (day 28): 11.51*
- TAG No 05, ratio versus control (day 28): 10.76*
- TAG No 07, ratio versus control (day 28): 14.21*
- dihomo-gamma-Linolenic acid (C20:cis[8,11,14]3), ratio versus control (day 28): 3.96*
- erythro-Sphingosine, ratio versus control (day 28): 1.9*

Compound: CNC(=O)/C(=N/OC)c1ccccc1COc1cc(C)ccc1C [Dimoxystrobin, (E)-2-(methoxyimino)-N-methyl-2-[alpha-(2,5-xylyloxy)-o-tolyl]acetamide]
- 3-O-Methylsphingosine (d18:1), ratio versus control (day 7): 2.18*
- 5-O-Methylsphingosine (d18:1), ratio versus control (day 7): 1.94*
- 14-Methylhexadecanoic acid, ratio versus control (day 7): 1.27
- Behenic acid (C22:0), ratio versus control (day 7): 2.03*
- Cholesterol, ratio versus control (day 7): 1.66*
- Coenzyme Q9, ratio versus control (day 7): 1.51*
- DAG (C18:1,C18:2), ratio versus control (day 7): 2.28*
- Eicosanoic acid (C20:0), ratio versus control (day 7): 2.23*
- Glucose, ratio versus control (day 7): 1.14
- Glycerol phosphate, lipid fraction, ratio versus control (day 7): 1.68*
- Glycerol, lipid fraction, ratio versus control (day 7): 2.08*
- Glycerol-3-phosphate, polar fraction, ratio versus control (day 7): 1.38
- Heptadecanoic acid (C17:0), ratio versus control (day 7): 1.81*
- Linoleic acid (C18:cis[9,12]2), ratio versus control (day 7): 2.12*
- Nervonic acid (C24:cis[15]1), ratio versus control (day 7): 1.83*
- Palmitic acid (C16:0), ratio versus control (day 7): 1.99*
- Phosphatidylcholine (C16:0,C20:5), ratio versus control (day 7): 1.33*
- TAG (C16:0,C18:1,C18:3), ratio versus control (day 7): 4.17*
- TAG (C16:0,C18:2), ratio versus control (day 7): 3.49*
- TAG (C18:1,C18:2), ratio versus control (day 7): 4.18*
- TAG (C18:2,C18:2), ratio versus control (day 7): 3.69*
- TAG (C18:2,C18:3), ratio versus control (day 7): 3.61*
- TAG No 01, ratio versus control (day 7): 2.62*
- TAG No 05, ratio versus control (day 7): 2.89*
- TAG No 07, ratio versus control (day 7): 2.5*
- dihomo-gamma-Linolenic acid (C20:cis[8,11,14]3), ratio versus control (day 7): 2.95*
- erythro-Sphingosine, ratio versus control (day 7): 1.86*
- 3-O-Methylsphingosine (d18:1), ratio versus control (day 14): 1.78*
- 5-O-Methylsphingosine (d18:1), ratio versus control (day 14): 1.94*
- 14-Methylhexadecanoic acid, ratio versus control (day 14): 1.15
- Behenic acid (C22:0), ratio versus control (day 14): 2.23*
- Cholesterol, ratio versus control (day 14): 1.7*
- Coenzyme Q9, ratio versus control (day 14): 1.91
- DAG (C18:1,C18:2), ratio versus control (day 14): 2.99*
- Eicosanoic acid (C20:0), ratio versus control (day 14): 2.54*
- Glucose, ratio versus control (day 14): 1.17
- Glycerol phosphate, lipid fraction, ratio versus control (day 14): 1.69*
- Glycerol, lipid fraction, ratio versus control (day 14): 2.44*
- Glycerol-3-phosphate, polar fraction, ratio versus control (day 14): 1.32*
- Heptadecanoic acid (C17:0), ratio versus control (day 14): 1.73*
- Linoleic acid (C18:cis[9,12]2), ratio versus control (day 14): 2.2*
- Nervonic acid (C24:cis[15]1), ratio versus control (day 14): 1.54*
- Palmitic acid (C16:0), ratio versus control (day 14): 1.89*
- Phosphatidylcholine (C16:0,C20:5), ratio versus control (day 14): 1.54*
- TAG (C16:0,C18:1,C18:3), ratio versus control (day 14): 5.45*
- TAG (C16:0,C18:2), ratio versus control (day 14): 4.36*
- TAG (C18:1,C18:2), ratio versus control (day 14): 3.37*
- TAG (C18:2,C18:2), ratio versus control (day 14): 3.82*
- TAG (C18:2,C18:3), ratio versus control (day 14): 2.41*
- TAG No 01, ratio versus control (day 14): 1.93*
- TAG No 05, ratio versus control (day 14): 3.02*
- TAG No 07, ratio versus control (day 14): 3.54*
- dihomo-gamma-Linolenic acid (C20:cis[8,11,14]3), ratio versus control (day 14): 2.58*
- erythro-Sphingosine, ratio versus control (day 14): 1.78*
- 3-O-Methylsphingosine (d18:1), ratio versus control (day 28): 1.52*
- 5-O-Methylsphingosine (d18:1), ratio versus control (day 28): 1.59*
- 14-Methylhexadecanoic acid, ratio versus control (day 28): 1.31*
- Behenic acid (C22:0), ratio versus control (day 28): 2.03*
- Cholesterol, ratio versus control (day 28): 1.75*
- Coenzyme Q9, ratio versus control (day 28): 1.78*
- DAG (C18:1,C18:2), ratio versus control (day 28): 2.85*
- Eicosanoic acid (C20:0), ratio versus control (day 28): 2.08*
- Glucose, ratio versus control (day 28): 1.15
- Glycerol phosphate, lipid fraction, ratio versus control (day 28): 1.98*
- Glycerol, lipid fraction, ratio versus control (day 28): 2.58*
- Glycerol-3-phosphate, polar fraction, ratio versus control (day 28): 1.79
- Heptadecanoic acid (C17:0), ratio versus control (day 28): 2.84*
- Linoleic acid (C18:cis[9,12]2), ratio versus control (day 28): 2.2*
- Nervonic acid (C24:cis[15]1), ratio versus control (day 28): 1.38*
- Palmitic acid (C16:0), ratio versus control (day 28): 2.03*
- Phosphatidylcholine (C16:0,C20:5), ratio versus control (day 28): 1.15*
- TAG (C16:0,C18:1,C18:3), ratio versus control (day 28): 3.93*
- TAG (C16:0,C18:2), ratio versus control (day 28): 3.68*
- TAG (C18:1,C18:2), ratio versus control (day 28): 4.49*
- TAG (C18:2,C18:2), ratio versus control (day 28): 5.11*
- TAG (C18:2,C18:3), ratio versus control (day 28): 3.9*
- TAG No 01, ratio versus control (day 28): 2.61*
- TAG No 05, ratio versus control (day 28): 4.39*
- TAG No 07, ratio versus control (day 28): 4.13*
- dihomo-gamma-Linolenic acid (C20:cis[8,11,14]3), ratio versus control (day 28): 3.54*
- erythro-Sphingosine, ratio versus control (day 28): 1.46*
